Paper PMC10893631, “Receptor-based pharmacophore modeling, molecular docking, synthesis and biological evaluation of novel VEGFR-2, FGFR-1, and BRAF multi-kinase inhibitors” (BMC Chemistry, 2024)
Like-named read-outs stand apart in the source and are kept apart here.

Legend:
Assay type in all cases: cell-based, human
NCI-H460 = test: NCI SRB growth inhibition (single dose 10 µM / five-dose); details: Homo sapiens; for inhibition at 10 µM: NCI-H460 (Non-small cell lung cancer), read-out: GI%; for GI50: NCI-H460, Non-small cell lung cancer, five-dose
Method in brief: (§1)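 TCA fixation ends the assay for adherent lines; unbound SRB is rinsed off five times with 1% acetic acid. Drug is added from a DMSO concentrate at 400× the maximum final concentration, made up to 2× in gentamicin-containing medium, then halved on addition to wells.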

U251 = test: as above; details: Homo sapiens, U-251; for inhibition at 10 µM: U251 (CNS cancer), read-out: GI%; for GI50: U251, CNS cancer, five-dose
Method in brief: as §1

NCI-H522 = test: as above; details: Homo sapiens; for inhibition at 10 µM: NCI-H522 (Non-small cell lung cancer), read-out: GI%; for GI50: NCI-H522, Non-small cell lung cancer, five-dose
Method in brief: as §1

UACC-62 = test: as above; details: Homo sapiens; for inhibition at 10 µM: UACC-62 (Melanoma), read-out: GI%; for GI50: UACC-62, Melanoma, five-dose
Method in brief: as §1

OVCAR-8 = test: as above; details: Homo sapiens; for inhibition at 10 µM: OVCAR-8 (Ovarian cancer), read-out: GI%; for GI50: OVCAR-8, Ovarian cancer, five-dose
Method in brief: as §1

KM12 = test: as above; details: Homo sapiens; for inhibition at 10 µM: KM12 (Colon cancer), read-out: GI%; for GI50: KM12, Colon cancer, five-dose
Method in brief: as §1

T-47D = test: as above; details: Homo sapiens, T47D; for inhibition at 10 µM: T-47D (Breast cancer), read-out: GI%; for GI50: T-47D, Breast cancer, five-dose
Method in brief: as §1

NCI-H322M = test: as above; details: Homo sapiens; for inhibition at 10 µM: NCI-H322M (Non-small cell lung cancer), read-out: GI%; for GI50: NCI-H322M, Non-small cell lung cancer, five-dose
Method in brief: as §1

HCT-15 = test: as above; details: Homo sapiens; for inhibition at 10 µM: HCT-15 (Colon cancer), read-out: GI%; for GI50: HCT-15, Colon cancer, five-dose
Method in brief: as §1

NCI-H23 = test: as above; details: Homo sapiens; for inhibition at 10 µM: NCI-H23 (Non-small cell lung cancer), read-out: GI%; for GI50: NCI-H23, Non-small cell lung cancer, five-dose
Method in brief: as §1

IGROV1 = test: as above; details: Homo sapiens, IGROV-1; for inhibition at 10 µM: IGROV1 (Ovarian cancer), read-out: GI%; for GI50: IGROV1, Ovarian cancer, five-dose
Method in brief: as §1

MDA-MB-435 = test: as above; details: Homo sapiens; for inhibition at 10 µM: MDA-MB-435 (Melanoma), read-out: GI%; for GI50: MDA-MB-435, Melanoma, five-dose
Method in brief: as §1

HL-60(TB) = test: as above; details: Homo sapiens; for inhibition at 10 µM: HL-60(TB) (Leukemia), read-out: GI%; for GI50: HL-60(TB), Leukemia, five-dose
Method in brief: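 After a 24 h pre-incubation, cells received drug at five serially diluted concentrations; two untreated plates per line were TCA-fixed at drug addition as Tz. Adherent plates were fixed with cold TCA, stained with SRB and washed with 1% acetic acid.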

SF-268 = test: as above; details: Homo sapiens; for inhibition at 10 µM: SF-268 (CNS cancer), read-out: GI%; for GI50: SF-268, CNS cancer, five-dose
Method in brief: as §1

COLO 205 = test: as above; details: Homo sapiens; for inhibition at 10 µM: COLO 205 (Colon cancer), read-out: GI%; for GI50: COLO 205, Colon cancer, five-dose
Method in brief: as §1

PC-3 = test: as above; details: Homo sapiens; for inhibition at 10 µM: PC-3 (Prostate cancer), read-out: GI%
Method in brief: as §1

SN12C = test: as above; details: Homo sapiens; for GI50: SN12C, Renal cancer, five-dose
Method in brief: as §1

OVCAR-4 = test: as above; details: Homo sapiens; for inhibition at 10 µM: OVCAR-4 (Ovarian cancer), read-out: GI%; for GI50: OVCAR-4, Ovarian cancer, five-dose
Method in brief: as §1

HOP-62 = test: as above; details: Homo sapiens; for inhibition at 10 µM: HOP-62 (Non-small cell lung cancer), read-out: GI%; for GI50: HOP-62, Non-small cell lung cancer, five-dose
Method in brief: as §1

SK-OV-3 = test: as above; details: Homo sapiens; for inhibition at 10 µM: SK-OV-3 (Ovarian cancer), read-out: GI%; for GI50: SK-OV-3, Ovarian cancer, five-dose
Method in brief: as §1

UO-31 = test: as above; details: Homo sapiens; for inhibition at 10 µM: UO-31 (Renal cancer), read-out: GI%; for GI50: UO-31, Renal cancer, five-dose
Method in brief: as §1

OVCAR-3 = test: as above; details: Homo sapiens; for inhibition at 10 µM: OVCAR-3 (Ovarian cancer), read-out: GI%; for GI50: OVCAR-3, Ovarian cancer, five-dose
Method in brief: as §1

[1] = test system: NCI panel of 60 tumor cell lines; test: NCI SRB growth inhibition, whole panel mean (single dose 10 µM / five-dose); details: Homo sapiens; for GI50: mean over NCI cancer cell lines, five-dose
Method: Screening of cytotoxic activity against a panel of sixty human tumor cell lines The selected compounds by NCI were evaluated for their anticancer activity in a two- stage process. […] Then, the output from the single dose screen is reported as a mean graph. […] Assay protocol. […] For a typical screening experiment, cells are inoculated into 96 well microtiter plates in 100 µL at plating densities ranging from 5000 to 40,000 cells/well depending on the doubling time of individual cell lines. […] After 24 h, two plates of each cell line are fixed in situ with TCA, to represent a measurement of the cell population for each cell line at the time of drug addition (Tz). The experimental drugs are solubilized in dimethyl sulfoxide at 400-fold the desired final maximum test concentration and stored frozen prior to use. At the time of drug addition, an aliquot of frozen concentrate is thawed and diluted to twice the desired final maximum test concentration with complete medium containing 50 µg/mL gentamicin. Additional four, 10-fold or ½ log serial dilutions are made to provide a total of five drug concentrations plus control. Aliquots of 100 mL of these different drug dilutions are added to the appropriate microtiter wells already containing […] of medium, resulting in the required final drug concentrations. […] For adherent cells, the assay is terminated by the addition of cold TCA. […] The supernatant is discarded, and the plates are washed five times with tap water and air dried. Sulforhodamine B (SRB) solution ([…]) at 0.4% (w/v) in 1% acetic acid is added to each well, and plates are incubated for 10 min at room temperature. After staining, unbound dye is removed by washing five times with 1% acetic acid and the plates are air dried. […] Using the seven absorbance measurements [time zero, (Tz), control growth, (C), and test growth in the presence of drug at the five concentration levels (Ti)], the percentage growth is calculated at each of the drug concentrations levels. Percentage growth inhibition is calculated as: [(Ti Tz)/(C–Tz)] x 100 for concentrations for which Ti>/=Tz and [(Ti-Tz)/Tz] x 100 for concentrations for which Ti < Tz. Three dose response parameters are calculated for each experimental agent. […] The drug concentration resulting in total growth inhibition (TGI) is calculated from Ti = Tz. […] Values are calculated for each of these three parameters if the level of activity is reached; however, if the effect is not reached or is exceeded, the value for that parameter is expressed as greater or less than the maximum or minimum concentration tested.

[2] = mean over NCI 60 cell lines, > 100% = lethal effect, read-out: mean growth inhibition % (GI%)
[3] = mean over NCI panel of 60 tumor cell lines, read-out: Mean growth inhibition %

In the case of `COc1ccc(-c2nc3cc(C(=O)NN=Cc4ccccc4O)ccc3[nH]2)cc1` [8h, N'-(2-Hydroxybenzylidene)-2-(4-methoxyphenyl)-1H-benzo[d]imidazole-5-carbohydrazide], the inhibition at 10 µM (NCI-H460) was greater than 100%, the GI50 (NCI-H460) was 1870 nM and the inhibition at 10 µM (U251) was greater than 100%. For the same compound, the GI50 (U251) was 1640 nM, the inhibition at 10 µM (NCI-H522) was greater than 100% and the GI50 (NCI-H522) was 1540 nM. The inhibition at 10 µM (UACC-62) was greater than 100%, the GI50 (UACC-62) was 2.53 µM and the inhibition at 10 µM (OVCAR-8) was greater than 100%. For the same compound, the GI50 (OVCAR-8) was 1970 nM, the inhibition at 10 µM (KM12) was greater than 100% and the GI50 (KM12) was 4.24 µM. It also gave an inhibition at 10 µM (T-47D) greater than 100%, a GI50 (T-47D) of 2600 nM and an inhibition at 10 µM (NCI-H322M) of 96.7%. For the same compound, the GI50 (NCI-H322M) was 4.23 µM, the inhibition at 10 µM (HCT-15) was greater than 100% and the GI50 (HCT-15) was 1250 nM. For the same compound, the inhibition at 10 µM (NCI-H23) was 94.6%, the GI50 (NCI-H23) was 2060 nM and the inhibition at 10 µM (IGROV1) was greater than 100%. For the same compound, the GI50 (IGROV1) was 2260 nM, the inhibition at 10 µM (MDA-MB-435) was greater than 100% and the GI50 (MDA-MB-435) was 1.95 µM. For the same compound, the inhibition at 10 µM (HL-60(TB)) was 82.9%, the GI50 (HL-60(TB)) was 2.09 µM and the inhibition at 10 µM (SF-268) was greater than 100%. For the same compound, the GI50 (SF-268) was 920 nM, the inhibition at 10 µM (COLO 205) was greater than 100% and the GI50 (COLO 205) was 2.9 µM. The inhibition at 10 µM (PC-3) was greater than 100%, the GI50 (PC-3; PC-3, Prostate cancer, five-dose) was 1770 nM and the inhibition at 10 µM (SN12C; SN12C (Renal cancer), 10 µM, read-out: GI%) was greater than 100%. The GI50 (SN12C) was 4.99 µM, the inhibition at 10 µM (OVCAR-4) was greater than 100% and the GI50 (OVCAR-4) was 2240 nM. For the same compound, the inhibition at 10 µM (HOP-62) was greater than 100%, the GI50 (HOP-62) was 5.09 µM and the inhibition at 10 µM (SK-OV-3) was greater than 100%. The GI50 (SK-OV-3) was 7.3 µM, the inhibition at 10 µM (UO-31) was greater than 100% and the GI50 (UO-31) was 1700 nM. For the same compound, the inhibition at 10 µM (OVCAR-3) was greater than 100%, the GI50 (OVCAR-3) was 1980 nM and the inhibition at 10 µM [1, 2] was greater than 100%. For the same compound, the GI50 [1] was 2.98 µM and the inhibition at 10 µM [1, 3] was greater than 100%.
`COc1ccc(-c2nc3cc(C(=O)NN=Cc4cccc(OC)c4)ccc3[nH]2)cc1` [8j, N'-(3-Methoxybenzylidene)-2-(4-methoxyphenyl)-1H-benzo[d]imidazole-5-carbohydrazide] was tested, and the inhibition at 10 µM (NCI-H460) was greater than 100%, the GI50 (NCI-H460) was 1850 nM and the inhibition at 10 µM (U251) was greater than 100%. For the same compound, the GI50 (U251) was 2180 nM, the inhibition at 10 µM (NCI-H522) was 89.7% and the GI50 (NCI-H522) was 3300 nM. It also gave an inhibition at 10 µM (UACC-62) of 58.9%, a GI50 (UACC-62) of 6.5 µM and an inhibition at 10 µM (OVCAR-8) greater than 100%. For the same compound, the GI50 (OVCAR-8) was 1920 nM, the inhibition at 10 µM (KM12) was greater than 100% and the GI50 (KM12) was 4.34 µM. For the same compound, the inhibition at 10 µM (T-47D) was greater than 100%, the GI50 (T-47D) was 2620 nM and the inhibition at 10 µM (NCI-H322M) was greater than 100%. It also gave a GI50 (NCI-H322M) of 3.03 µM, an inhibition at 10 µM (HCT-15) of 79.2% and a GI50 (HCT-15) of 3920 nM. It also gave an inhibition at 10 µM (NCI-H23) greater than 100%, a GI50 (NCI-H23) of 2950 nM and an inhibition at 10 µM (IGROV1) greater than 100%. It also gave a GI50 (IGROV1) of 3490 nM, an inhibition at 10 µM (MDA-MB-435) of 76.5% and a GI50 (MDA-MB-435) of 6.25 µM. For the same compound, the inhibition at 10 µM (HL-60(TB)) was 30.4%, the GI50 (HL-60(TB)) was 36.5 µM and the inhibition at 10 µM (SF-268) was 84.7%. For the same compound, the GI50 (SF-268) was 3280 nM, the inhibition at 10 µM (COLO 205) was greater than 100% and the GI50 (COLO 205) was 4.3 µM. For the same compound, the inhibition at 10 µM (PC-3) was greater than 100%, the GI50 (SN12C) was 2.78 µM and the inhibition at 10 µM (OVCAR-4) was greater than 100%. The GI50 (OVCAR-4) was 2010 nM, the inhibition at 10 µM (HOP-62) was greater than 100% and the GI50 (HOP-62) was 2.7 µM. For the same compound, the inhibition at 10 µM (SK-OV-3) was 68.3%, the GI50 (SK-OV-3) was 5.39 µM and the inhibition at 10 µM (UO-31) was 98.9%. For the same compound, the GI50 (UO-31) was 1780 nM, the inhibition at 10 µM (OVCAR-3) was greater than 100% and the GI50 (OVCAR-3) was 2050 nM. For the same compound, the inhibition at 10 µM [1, 2] was 100%, the GI50 [1] was 5.24 µM and the inhibition at 10 µM [1, 3] was greater than 100%.
